In US20240124442A1, “TRICYCLIC-AMIDO-BICYCLIC PRMT5 INHIBITORS” (AMGEN INC., priority 2021, published 2024):

What was measured:
HCT116 MTAP null cells = test: HCT116 MTAP null cell line proliferation / cell viability (CellTiter-Glo, 6 days); type: cell-based; conditions: 144 h; HCT116 MTAP null cells, 6 days treatment, CellTiter-Glo cell viability; read-out: HCT-116 MTAP null IC50
Outline: (§1)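 Anti-proliferative IC50s were derived from CellTiter-Glo signal in HCT116 parent and MTAP-null cells after six days on compound. Serial dilutions reached top concentrations of 1, 10 or 50 μM, with DMSO-only wells as control.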

HCT116 WT cells = test: HCT116 WT (parent) cell line proliferation / cell viability (CellTiter-Glo, 6 days); type: cell-based; conditions: Homo sapiens, HCT-116, 144 h, 6 days treatment
Outline: as §1

SMILES | IC50 (HCT116 MTAP null cells) [nM] | IC50 (HCT116 WT cells) [nM]
CN(C(=O)c1cc(F)c2nc(N)c3cnn(C)c3c2c1)[C@@H]1COc2cc(C(F)(F)F)ccc21 [Example 254, 4-amino-6-fluoro-N,1-dimethyl-N-((3S)-6-(trifluoromethyl)-2,3-dihydro-1-benzofuran-3-yl)-1H-pyrazolo[4,3-c]quinoline-8-carboxamide] | 308 | 20200
CN(C(=O)c1cc2c(cn1)nc(N)c1c2cnn1C)[C@@H]1COc2cc(C(F)(F)F)ccc21 [Example 256, 4-amino-N,3-dimethyl-N-((3S)-6-(trifluoromethyl)-2,3-dihydro-1-benzofuran-3-yl)-3H-pyrazolo[3,4-c][1,7]naphthyr-idine-8-carboxamide] | 143 | 7500
CN(C(=O)c1cc2c(cn1)nc(N)c1c2cnn1C)[C@@H]1COc2cc(S(F)(F)(F)(F)F)ccc21 [Example 257, 4-amino-N,3-dimethyl-N-((3S)-6-(pentafluoro-lambda~6~-sulfanyl)-2,3-dihydro-1-benzofuran-3-yl)-3H-pyrazolo[3,4-c][1,7]naph-thyridine-8-carboxamide] | 59 | 2020
CN(C(=O)c1cc2c(cc1F)nc(N)c1c2cnn1C)[C@@H]1COc2cc(C(F)(F)F)ccc21 [Example 258, 4-amino-7-fluoro-N,3-dimethyl-N-((3S)-6-(trifluoromethyl)-2,3-dihydro-1-benzofuran-3-yl)-3H-pyrazolo[3,4-c]quinoline-8-carboxamide] | 54 | 4030
CN(C(=O)c1cc2c(cc1F)nc(N)c1c2cnn1C)[C@@H]1COc2cc(OC(F)(F)F)ccc21 [Example 259, 4-amino-7-fluoro-N,3-dimethyl-N-((3S)-6-(trifluoromethoxy)-2,3-dihydro-1-benzofuran-3-yl)-3H-pyrazolo[3,4-c]quinoline-8-carboxamide] | 62 | 3240
CN(C(=O)c1cc2c(cc1F)nc(N)c1c2cnn1C)[C@@H]1COc2cc(-c3cnn(C(F)(F)F)c3)ccc21 [Example 260, 4-amino-7-fluoro-N,3-dimethyl-N-((3S)-6-(1-(trifluoromethyl)-1H-pyrazol-4-yl)-2,3-dihydro-1-benzofuran-3-yl)-3H-pyrazolo-[3,4-c]quinoline-8-carboxamide] | 82 | 10500
Cc1n[nH]c2c1c(N)nc1ccc(C(=O)N(C)[C@@H]3COc4cc(C(F)(F)F)ccc43)cc12 [Example 262, 4-amino-N,3-dimethyl-N-((3S)-6-(trifluoromethyl)-2,3-dihydro-1-benzofuran-3-yl)-1H-pyrazolo[4,3-c]quinoline-8-carboxamide] | 65 | 1950
Cc1nn(C)c2c1c(N)nc1ccc(C(=O)N(C)[C@@H]3COc4cc(C(F)(F)F)ccc43)cc12 [Example 263, 4-amino-N,1,3-trimethyl-N-((3S)-6-(trifluoromethyl)-2,3-dihydro-1-benzofuran-3-yl)-1H-pyrazolo[4,3-c]quinoline-8-carboxamide] | 58 | 2010
Cc1n[nH]c2c1c(N)nc1cnc(C(=O)N(C)[C@@H]3COc4cc(C(F)(F)F)ccc43)cc12 [Example 264, 4-amino-N,3-dimethyl-N-((3S)-6-(trifluoromethyl)-2,3-dihydro-1-benzofuran-3-yl)-1H-pyrazolo[4,3-c][1,7]naph-thyridine-8-carboxamide] | 70 | 5110
Cc1nn(C)c2c1c(N)nc1cnc(C(=O)N(C)[C@@H]3COc4cc(C(F)(F)F)ccc43)cc12 [Example 265, 4-amino-N,1,3-trimethyl-N-((3S)-6-(trifluoromethyl)-2,3-dihydro-1-benzofuran-3-yl)-1H-pyrazolo[4,3-c][1,7]-naphthyridine-8-carboxamide] | 151 | 3850
Cc1nn(C)c2c1c(N)nc1cnc(C(=O)N(C)[C@@H]3COc4cc(S(F)(F)(F)(F)F)ccc43)cc12 [Example 266, 4-amino-N,1,3-trimethyl-N-((3S)-6-(pentafluoro-lambda~6~-sulfanyl)-2,3-dihydro-1-benzofuran-3-yl)-1H-pyrazolo[4,3-c][1,7]naph-thyridine-8-carboxamide] | 70 | 2660
C[C@@H]1OCc2c1c(N)nc1cnc(C(=O)N(C)[C@@H]3COCc4nc(C(F)(F)F)ccc43)cc21 [Example 271, (3S)-4-amino-N,3-dimethyl-N-((5S)-2-(trifluoromethyl)-5,8-dihydro-6H-pyrano[3,4-b]-pyridin-5-yl)-1,3-dihydrofuro-[3,4-c][1,7]naphthyridine-8-carboxamide] | 956 | 31400
CN(C(=O)c1cc2c3c(c(N)nc2nc1Cl)COC3)[C@@H]1COCc2cc(C#N)ccc21 [Example 275, 4-amino-7-chloro-N-((4S)-7-cyano-3,4-dihydro-1H-2-benzopyran-4-yl)-N-methyl-1,3-dihydrofuro[3,4-c][1,8]-naphthyridine-8-carboxamide] | 83 | 2670
CN(C(=O)c1cc2c3c(c(N)nc2cc1C(F)(F)F)COC3)[C@@H]1COCc2nc(C(F)(F)F)ccc21 [Example 278, 4-amino-N-methyl-7-(trifluoro-methyl)-N-((5S)-2-(trifluoro-methyl)-5,8-dihydro-6H-pyrano[3,4-b]pyridin-5-yl)-1,3-dihydrofuro[3,4-c]quinoline-8-carboxamide] | 56 | 4290

Stronger by IC50 (HCT116 MTAP null cells), values ahead:

IC50 (HCT116 MTAP null cells) [nM] | IC50 (HCT116 WT cells) [nM] | SMILES
47 | 2400 | CN(C(=O)c1ccc2nc(N)c3c(cnn3C)c2c1)[C@@H]1COc2cc(S(F)(F)(F)(F)F)ccc21 [Example 255, 4-amino-N,3-dimethyl-N-((3S)-6-(pentafluoro-lambda~6~- sulfanyl)-2,3-dihydro-1-benzo-furan-3-yl)-3H-pyrazolo[3,4-c]quinoline-8-carboxamide]
47 | 8560 | Cc1nn(C)c2c1c(N)nc1cc(F)c(C(=O)N(C)[C@@H]3COc4cc(-c5cnn(C(F)(F)F)c5)ccc43)cc12 [Example 268]
39 | 2930 | COc1ccc2c(c1)COC[C@H]2N(C)C(=O)c1cc2c3c(c(N)nc2cn1)[C@@H](C)OC3 [Example 269, (3R)-4-amino-N-((4S)-7-methoxy-3,4-dihydro-1H-2-benzopyran-4-yl)-N,3-dimeth-yl-1,3-dihydrofuro[3,4-c][1,7]-naphthyridine-8-carboxamide]
36 | 1980 | Cc1nn(C)c2c1c(N)nc1cc(F)c(C(=O)N(C)[C@@H]3COc4cc(C(F)(F)F)ccc43)cc12 [Example 267, 4-amino-7-fluoro-N,1,3-trimethyl-N-((3S)-6-(trifluoro-methyl)-2,3-dihydro-1-benzo-furan-3-yl)-1H-pyrazolo[4,3-c]quinoline-8-carboxamide]
35 | 2100 | CN(C(=O)c1cc2c(cc1C(F)(F)F)nc(N)c1cnn(C)c12)[C@@H]1COc2cc(C(F)(F)F)ccc21 [Example 253, 4-amino-N,1-dimethyl-7-(trifluoromethyl)-N-((3S)-6-(trifluoromethyl)-2,3-dihydro-1-benzofuran-3-yl)-1H-pyrazolo[4,3-c]quinoline-8-carboxamide]
19 | 234 | Cc1nc2nc(N)c3cnn(C)c3c2cc1C(=O)N(C)[C@@H]1COc2cc(Cl)c(Cl)cc21 [Example 252, 4-amino-N-((3S)-5,6-dichloro-2,3-dihydro-1-benzofuran-3-yl)-N,1,7-trimethyl-1H-pyrazolo[4,3-c][1,8]naphthyr-idine-8-carboxamide]
17 | 740 | C[C@H]1OCc2c1c(N)nc1cnc(C(=O)N(C)[C@@H]3COCc4nc(C(F)(F)F)ccc43)cc21 [Example 270, (3R)-4-amino-N,3-dimethyl-N-((5S)-2-(trifluoromethyl)-5,8-dihydro-6H-pyrano[3,4-b]-pyridin-5-yl)-1,3-dihydrofuro-[3,4-c][1,7]naphthyridine-8-carboxamide]
17 | 706 | CN(C(=O)c1ccc2nc(N)c3ccncc3c2c1)[C@@H]1COCc2nc(C(F)(F)F)ccc21 [Example 279, 5-amino-N-methyl-N-((5S)-2-(trifluoromethyl)-5,8-dihydro-6H-pyrano[3,4-b]pyridin-5-yl)benzo[c][2,6]naphthyridine-9-carboxamide]
16 | 417 | CN(C(=O)c1cc2c3c(c(N)nc2nc1Cl)COC3)[C@@H]1COCc2cc(C(F)(F)F)ccc21 [Example 276, 4-amino-7-chloro-N-methyl-N-((4S)-7-(trifluoromethyl)-3,4-dihydro-1H-2-benzopyran-4-yl)-1,3-dihydrofuro[3,4-c][1,8]-naphthyridine-8-carboxamide]
15 | 703 | CN(C(=O)c1ccc2nc(N)c3cn[nH]c3c2c1)[C@@H]1COc2cc(C(F)(F)F)ccc21 [Example 261, 4-amino-N-methyl-N-((3S)-6-(trifluoromethyl)-2,3-dihydro-1-benzofuran-3-yl)-1H-pyrazolo[4,3-c]quinoline-8-carboxamide]
5 | 202 | Cc1cc2nc(N)c3c(c2cc1C(=O)N(C)[C@@H]1COCc2nc(C(F)(F)F)ccc21)COC3 [Example 277, 4-amino-N,7-dimethyl-N-((5S)-2-(trifluoromethyl)-5,8-dihydro-6H-pyrano[3,4-b]pyridin-5-yl)-1,3-dihydrofuro[3,4-c]quin-oline-8-carboxamide]
4 | 229 | CN(C(=O)c1cc2c3c(c(N)nc2cc1Cl)COC3)[C@@H]1COCc2nc(C(F)(F)F)ccc21 [Example 274, 4-amino-7-chloro-N-methyl-N-((5S)-2-(trifluoromethyl)-5,8-dihydro-6H-pyrano[3,4-b]-pyridin-5-yl)-1,3-dihydrofuro-[3,4-c]quinoline-8-carboxamide]
